Experiments:
Test in all cases: MTT cell proliferation assay
Format in all cases: cell-based
Tera-1 cells = conditions: 72-hour MTT
How it was run: (§1)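 72-h MTT proliferation; 5,000-10,000 cells/well, overnight attachment; cpd 1 nM–30 μM, 8 concs; MTT ~4 h, formazan solubilized, OD490; % inhibition vs negative control, mean±SE, usually duplicate.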

Farage cells = conditions: 72-hour MTT
How it was run: as §1

HCC-202 cells = conditions: HCC202, 72-hour MTT
How it was run: as §1

CAPAN-1 cells = conditions: Homo sapiens, 72-hour MTT
How it was run: as §1

Jurkat cells = conditions: Homo sapiens, 72-hour MTT
How it was run: as §1

MSTO-211H cells = conditions: Homo sapiens, 72-hour MTT
How it was run: as §1

L3.6pl cells = conditions: Homo sapiens, 72-hour MTT
How it was run: as §1

MOLT4 cells = conditions: Homo sapiens, MOLT-4, 72-hour MTT
How it was run: as §1

U-266 cells = conditions: Homo sapiens, 72-hour MTT
How it was run: as §1

Hs578T cells = conditions: Homo sapiens, Hs-578T, 72-hour MTT
How it was run: as §1

HCC-4006 cells = conditions: Homo sapiens, HCC4006, 72-hour MTT
How it was run: as §1

SW-900 cells = conditions: Homo sapiens, SW900, 72-hour MTT
How it was run: as §1

SW-480 cells = conditions: Homo sapiens, SW480, 72-hour MTT
How it was run: as §1

HeLa cells = conditions: Homo sapiens, 72-hour MTT
How it was run: as §1

SHSY5Y cells = conditions: Homo sapiens, SH-SY5Y, 72-hour MTT
How it was run: as §1

HPAF-II cells = conditions: Homo sapiens, 72-hour MTT
How it was run: as §1

DoHH-2 cells = conditions: Homo sapiens, 72-hour MTT
How it was run: as §1

C6 cells = conditions: Rattus norvegicus, 72-hour MTT
How it was run: as §1

HCC-1143 cells = conditions: Homo sapiens, HCC1143, 72-hour MTT
How it was run: as §1

TFK-1 cells = conditions: 72-hour MTT
How it was run: as §1

HCC-827 cells = conditions: Homo sapiens, HCC827, 72-hour MTT
How it was run: as §1

OCIAML5 cells = conditions: Homo sapiens, OCI-AML-5, 72-hour MTT
How it was run: as §1

ANBL-6 cells = conditions: Homo sapiens, 72-hour MTT
How it was run: as §1

LS-174T cells = conditions: Homo sapiens, LS174T, 72-hour MTT
How it was run: as §1

BL-40 cells = conditions: 72-hour MTT
How it was run: as §1

THP1 cells = conditions: Homo sapiens, THP-1, 72-hour MTT
How it was run: as §1

SKOV3 cells = conditions: Homo sapiens, SK-OV-3, 72-hour MTT
How it was run: as §1

K562 cells = conditions: Homo sapiens, 72-hour MTT
How it was run: as §1

NCI-H1299 cells = conditions: Homo sapiens, 72-hour MTT
How it was run: as §1

DB cells = conditions: Homo sapiens, 72-hour MTT
How it was run: as §1

ARPE-19 cells = conditions: Homo sapiens, 72-hour MTT
How it was run: as §1

MDA-MB-361 cells = conditions: Homo sapiens, 72-hour MTT
How it was run: as §1

CaOV3 cells = conditions: Homo sapiens, Caov-3, 72-hour MTT
How it was run: as §1

WI-38 cells = conditions: Homo sapiens, 72-hour MTT
How it was run: as §1

MCF7 cells = conditions: Homo sapiens, 72-hour MTT
How it was run: as §1

SW-948 cells = conditions: Homo sapiens, SW948, 72-hour MTT
How it was run: as §1

MDA-MB-415 cells = conditions: Homo sapiens, 72-hour MTT
How it was run: as §1

NCI-H187 cells = conditions: Homo sapiens, 72-hour MTT
How it was run: as §1

SW-620 cells = conditions: Homo sapiens, 72-hour MTT
How it was run: as §1

Compound: Nc1ccc(/C=C/C(=O)NCc2cc3cc(-c4ccc(C(=O)N5CCC(F)(F)CC5)cn4)cc(C(F)(F)F)c3o2)cn1 [Compound 585, (E)-3-(6-aminopyridin-3-yl)-N-((5-(5-(4,4-difluoropiperidine-1-carbonyl)pyridin-2-yl)-7-(trifluoromethyl)benzofuran-2-yl)methyl)acrylamide]
- IC50 (Tera-1 cells): 120 nM
- IC50 (Farage cells): 70 nM
- IC50 (HCC-202 cells): 1690 nM
- IC50 (CAPAN-1 cells): 90 nM
- IC50 (Jurkat cells): 40 nM
- IC50 (MSTO-211H cells): 250 nM
- IC50 (L3.6pl cells): 70 nM
- IC50 (MOLT4 cells): 40 nM
- IC50 (U-266 cells): 310 nM
- IC50 (Hs578T cells): 250 nM
- IC50 (HCC-4006 cells): 740 nM
- IC50 (SW-900 cells): > 10000 nM
- IC50 (SW-480 cells): 480 nM
- IC50 (HeLa cells): 60 nM
- IC50 (SHSY5Y cells): 120 nM
- IC50 (HPAF-II cells): 550 nM
- IC50 (DoHH-2 cells): 90 nM
- IC50 (C6 cells): > 10000 nM
- IC50 (HCC-1143 cells): 210 nM
- IC50 (TFK-1 cells): 1030 nM
- IC50 (HCC-827 cells): 780 nM
- IC50 (OCIAML5 cells): 50 nM
- IC50 (ANBL-6 cells): 1010 nM
- IC50 (LS-174T cells): 8800 nM
- IC50 (BL-40 cells): 300 nM
- IC50 (THP1 cells): 20 nM
- IC50 (SKOV3 cells): > 10000 nM
- IC50 (K562 cells): 1090 nM
- IC50 (NCI-H1299 cells): 190 nM
- IC50 (DB cells): 290 nM
- IC50 (ARPE-19 cells): 780 nM
- IC50 (MDA-MB-361 cells): > 10000 nM
- IC50 (CaOV3 cells): 2220 nM
- IC50 (WI-38 cells): 220 nM
- IC50 (MCF7 cells): 700 nM
- IC50 (SW-948 cells): 910 nM
- IC50 (MDA-MB-415 cells): 1020 nM
- IC50 (NCI-H187 cells): 70 nM
- IC50 (SW-620 cells): 140 nM

Source: patent publication US12331040B2 (Karyopharm Therapeutics Inc., priority 2013, dated 2025)
